IC50 and EC50 data for two compounds are collected here from publication PMC9674596, “Origin of acetylcholine antagonism in ELIC, a bacterial pentameric ligand-gated ion channel” (Communications Biology, 2022).

Holding throughout (type): cell-based, Erwinia chrysanthemi
Assay [1] has as its target T1, wild-type ELIC (Dickeya chrysanthemi, UniProt P0C7B7, INS163G).
T1 construct: expressed in transfected cells; host or cells: Xenopus laevis oocytes injected with cRNA from ELIC-pTLN
The assay can be described thus: Two-electrode voltage clamp, whole-cell currents of wild-type ELIC expressed in Xenopus laevis oocytes. Particulars: for IC50: ACh IC50, WT ELIC. Here is the method:
(§1) Stage V-VI Xenopus laevis oocytes were isolated[72] and deflocculated enzymatically in ND96 buffer without Ca^2+ (96 mM NaCl, 2 mM KCl, 1 mM MgCl2, 2 mM pyruvate, 5 mM HEPES, pH 7.4), but supplemented with 1 mg/mL collagenase B and 1 mg/mL trypsin inhibitor, for 2 h at room temperature under constant stirring. The deflocculation buffer was then gradually removed by washing the oocytes in ND96 buffer (96 mM NaCl, 2 mM KCl, 1 mM MgCl2, 1 mM CaCl2, 2 mM pyruvate, 5 mM HEPES, pH 7.4) for several iterations. The oocytes were then allowed to stir for an additional hour at room temperature under constant stirring with the buffer being periodically replaced until clear. To obtain optimal receptor expression, individually selected and healthy oocytes were injected with 0.2 ng cRNA for wild-type ELIC and 5 ng cRNA for mutants. Subsequently, oocytes were incubated for one day at 16 °C in ND96^+ buffer (96 mM NaCl, 2 mM KCl, 1 mM MgCl2, 1 mM CaCl2, 2 mM pyruvate, and 5 mM HEPES at pH 7.6). After expression, injected oocytes were placed in a RC-1Z oocyte chamber (Harvard Apparatus; Hamden, CT) containing buffer (pH 7.4) composed of 150 mM NaCl, 0.5 mM BaCl2, 10 mM HEPES, and 1 mM dithiothreitol or 1 µM atropine if cysteamine, or ACh, was used in the experiment, respectively. The presence of the reducing agent, dithiothreitol, ensures that the sulfhydryl group of cysteamine remains reduced.
Once in the oocyte chamber, whole-cell currents were recorded using a two-electrode voltage-clamp apparatus (OC-725C oocyte clamp; Harvard Apparatus), with a buffer flow rate of 5–10 mL min^−1. Currents in response to various additions of cysteamine and/or ACh, were measured with the transmembrane voltage clamped at −60 mV. Dose response curves for each wild-type and mutant ELIC were acquired from at least five oocytes in two different batches. […]

In assay [2] the target is T2, ELIC A75D (Dickeya chrysanthemi, UniProt P0C7B7, A75D/INS163G).
T2 construct: expressed in transfected cells; host or cells: Xenopus laevis oocytes injected with cRNA from ELIC-pTLN
The experiment in a line: Two-electrode voltage clamp, A75D mutant ELIC expressed in Xenopus laevis oocytes. A general note: Two-electrode voltage clamp holds a large cell at a set potential and records current.

Assay [3] has as its target ELIC F133W (Dickeya chrysanthemi, UniProt P0C7B7, F133W). The experiment in a line: cell-based. Here is the method:
as §1, with “After expression, injected oocytes were placed in a RC-1Z oocyte chamber (Harvard Apparatus; Hamden, CT) containing buffer (pH 7.4) composed of 150 mM NaCl, 0.5 mM BaCl2, 10 mM HEPES, and 1 mM dithiothreitol or 1 µM atropine if cysteamine, or ACh, was used in the experiment, respectively. The presence of the reducing agent, dithiothreitol, ensures that the sulfhydryl group of cysteamine remains reduced.” left out
(§2) Once in the oocyte chamber, whole-cell currents were recorded using a two-electrode voltage-clamp apparatus (OC-725C oocyte clamp; Harvard Apparatus), with a buffer flow rate of 5–10 mL min^−1. Currents in response to various additions of cysteamine and/or ACh, were measured with the transmembrane voltage clamped at −60 mV. […]

Assay [4] has as its target ELIC Y38W (Dickeya chrysanthemi, UniProt P0C7B7, Y38W). The assay can be described thus: Two-electrode voltage clamp, Y38W mutant ELIC expressed in Xenopus laevis oocytes. Here is the method: as §1, with “After expression, injected oocytes were placed in a RC-1Z oocyte chamber (Harvard Apparatus; Hamden, CT) containing buffer (pH 7.4) composed of 150 mM NaCl, 0.5 mM BaCl2, 10 mM HEPES, and 1 mM dithiothreitol or 1 µM atropine if cysteamine, or ACh, was used in the experiment, respectively. The presence of the reducing agent, dithiothreitol, ensures that the sulfhydryl group of cysteamine remains reduced.” left out
as §2

For orientation: IC50 means the concentration at which inhibition is half-maximal. A high value points to lower potency. Consider `CC(=O)OCC[N+](C)(C)C` [ACh, acetylcholine], for which the IC50 is 1100 ± 200 µM in assay [1] (inhibition of GABA-activated current, GABA at its EC50 (2.7 mM)); 1000 ± 200 µM in assay [1] (inhibition of cysteamine-activated current, cysteamine at its EC50 (0.6 mM)); 7000 ± 2000 µM in assay [2]; 8000 ± 2000 µM in assay [3]; 400 ± 100 µM in assay [4].

Broadly, the EC50 is the midpoint of the concentration-response curve. Lower therefore signals greater potency. In turn, `NCCCC(=O)O` [GABA, γ-aminobutyric acid] came in with an EC50 in assay [1] of 2700 ± 300 µM.
